In patent US6806267B1, “Apoptosis-inducing compounds” (priority 1998, dated 2004):

Tests used:
HL-60 cells = assay: Apoptosis in HL-60 cells, cytospin and Rapi-Diff staining; conditions: for protection against PBOX-6 induced apoptosis: HL-60, N-acetylcysteine 5 mM or TEMPO 1 μM, 30 min prior to PBOX-6 8 hours; for cytotoxicity at 10 µM: Homo sapiens, HL-60, 16 h, read-out: % Apoptosis; for induction of apoptosis at 10 μM / induction of apoptosis at a higher concentration: HL 60 cells; for induction of apoptosis at a higher concentration: higher concentration printed as 10 μM
K562 cells = assay: Apoptosis in K562 cells, cytospin and staining; format: cell-based, human; conditions: for protection against PBOX-6 induced apoptosis / effect of tyrosine kinase inhibitor pretreatment on PBOX-6 induced apoptosis: K562; for protection against PBOX-6 induced apoptosis: Vitamin E 1 hour or N-acetylcysteine 24 hours, then PBOX-6 16 hours; for effect of pretreatment on PBOX-6 induced apoptosis: K562, 1 hour prior to PBOX-6 16 hours; for induction of apoptosis: K562 cells; for effect of tyrosine kinase inhibitor pretreatment on PBOX-6 induced apoptosis: genistein 100 μM, herbimycin A 5 μM, tyrophostin 200 μM
[1] = biological target: T1, peripheral-type benzodiazepine receptor (PBR) (Homo sapiens, UniProt P30536); assay: Radioligand binding assay, inhibition of [^3H]PK 11195 binding to HL-60 homogenates; conditions: for Ki: HL-60 homogenates, 2 nM [^3H]PK 11195, mean±SEM, read-out: Inhibition of [^3H]PK 11195 binding to the PBR, Ki value
T1 construct: Cell homogenates (50 μg protein) were incubated with 0.5-50 nM [^3H]; PK 11195; endogenous in cells; host or cells: HL-60 cell homogenate
Experimental: HL-60 cells were harvested by centrifugation at 600 g for 5 min and washing in phosphate-buffered saline. The resulting cell pellet was homogenised in 50 mM Tris/HCl buffer, pH 7.4 (2 ml), using an Ultraturrax homogeniser (10 sec) and then passed 5 times through a 21 gauge needle. Cell homogenates (50 μg protein) were incubated with 0.5-50 nM [^3H] PK 11195 in 50 mM Tris/HCl buffer, pH 7.4 (incubation buffer), in a total volume of 0.5 ml on ice. Total and non-specific/non-saturable binding in each case was determined in the absence and presence of 10 μM unlabelled PK 11195 respectively. All samples were incubated in triplicate for 60 min. The incubation mixtures were then filtered and counted as previously described (O'Beirne, et al., 1988). When testing the potency of a compound to inhibit [^3H] PK 11195 binding, samples were incubated with 2 nM [3H] PK 11195 and various concentrations (0.1 nM to 1 μM) of compound and subsequently treated exactly as above. The resulting Ki values were then generated by the use of the computer programs EBDA and LIGAND.
The amount of radioactivity bound in the presence of the displacer was expressed as a percentage of control bonding and the values represent the mean±SEM of triplicate determinations from one representative experiment performed at least twice. The Ki values were obtained as described in Methods section.

[2] = system: human 132 l N1 astrocytoma; conditions: dose-dependent; cited from earlier work
rat C6 glioma = conditions: dose-dependent; cited from earlier work
[3] = system: CML cell lines K562, KYO.1 and Lama 84; assay: Apoptosis in CML cell lines, cytospin and staining; format: cell-based, human; conditions: for induction of apoptosis at 10 μM / induction of apoptosis at 100 μM: CML cells
JNK1 and JNK2 = format: cell-based, human; conditions: K562
[4] = system: tyrosine phosphorylated proteins; assay: Protein tyrosine phosphorylation Western blot, K562 cells; format: cell-based, human; conditions: K562, 100 μM in DMSO, 1 hr prior to PBOX-6
Experimental: Jurkat and CML cells (5×10^6) were harvested by centrifuigation at 1800 g for 10 min at 4° C. After being washed once with ice-cold phosphate-buffered saline, the cell pellet was suspended in 100 μl of ice-cold lysis buffer (50 mM Tris-HCl, pH 8.0, 150 mM NaCl, 0.1%.SDS, 1% Triton X-100, 1 mM sodium 1 mM phenylmethylsulfonyl, 10 ng/ml leupeptin and 10 ng/ml of aprotinin). The cells were left to sit on ice for 10 min and then centrifuged at 20,000 g for 20 min. The resulting supernatant was stored at −70° C. until measurement of tyrosine phosphorylation. Protein determination was measured by using the Bradford assay. Equal amounts of protein were resolved by SDS-polyacrylamide gel electrophoresis in 15% gels and transferred onto polyvinylidene difluoride (PVDF) membranes. Membranes were blocked with Tris-buffered saline with Tween 20 (10 mM Tris-HCl, pH 8.0, 150 mM NaCl, 0.05% Tween 20) containing 1% w/v BSA and probed with anti-phosphotyrosine antibody. Blots were washed, incubated with goat anti-mouse IgG peroxidase conjugate and developed by ECL according to the manufacturer's recommendations.

T1 sequence (P30536 whole entry): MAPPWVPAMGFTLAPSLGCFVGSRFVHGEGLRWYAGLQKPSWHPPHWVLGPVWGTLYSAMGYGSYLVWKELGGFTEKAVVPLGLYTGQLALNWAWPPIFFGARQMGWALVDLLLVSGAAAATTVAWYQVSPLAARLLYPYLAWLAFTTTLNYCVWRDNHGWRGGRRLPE

## CC(=O)N[C@@H](CS)C(=O)O [N-acetylcysteine, reference compound]
HL-60 cells
  protection against PBOX-6 induced apoptosis: Neither of these compounds were found to protect
K562 cells
  protection against PBOX-6 induced apoptosis: failed to protect

## CC(=O)OC1=C(c2cccc3ccccc23)Oc2ccccc2-n2cccc21 [PBOX-4, 7-Acetoxy-6-(1-naphthyl)pyrrolo[2,1-d][1,5]benzoxazepine]
HL-60 cells
  cytotoxicity at 10 µM: 42.1 ± 0.6%
[1]
  Ki: 1.9 ± 2.3 nM

## CNC(=O)OC1=C(c2cccc3ccccc23)Oc2ccccc2-n2cccc21 [PBOX-7, 7-[(Methylcarbamoyl)oxy]-6-(1-naphthyl)pyrrolo[2,1-d][1,5]-benzoxazepine]
HL-60 cells; HL-60 cells, 10 μM, 16 hours
  degree of necrosis: negligible
HL-60 cells
  cytotoxicity at 10 µM: 40.7 ± 2.5%
[1]
  Ki: 1.7 ± 0.7 nM

## CN(C)C(=O)OC1=C(c2cccc3ccccc23)Sc2ccccc2-n2cccc21 [PBOX-8, 7-((Dimethylcarbamoyl)oxy)-6-(1-naphthyl)pyrrolo[2,1-d][1,5]benzothiazepine]
HL-60 cells
  cytotoxicity at 10 µM: 38.6 ± 3.1%

## CC(=O)OC1=C(c2cccc3ccccc23)Sc2ccccc2-n2cccc21 [PBOX-9, 7-Acetoxy-6-(1-naphthyl)pyrrolo[2,1-d][1,5]benzothiazepine]
HL-60 cells
  cytotoxicity at 10 µM: 40.4 ± 3%

## CC(=O)OC1=C(c2cccc3ccccc23)Oc2cccnc2-n2cccc21 [PBOX-12, 7-Acetoxy-6-(1-naphthyl)pyrrolo[1,2-d]pyrido[3,2-b][1,4]oiazepine]
HL-60 cells
  cytotoxicity at 10 µM: 27.1 ± 2.7%

## CCN(CC)C(=O)OC1=C(c2ccc(C)cc2)Oc2ccccc2-n2cccc21 [PBOX-21]
[2]
  inhibition of proliferation, without being cytotoxic: inhibit at micromolar concentrations
Rat C6 glioma
  inhibition of proliferation, without being cytotoxic: inhibit at micromolar concentrations

## CC(=O)OC1=C(c2ccc(C)cc2)Oc2ccccc2-n2cccc21 [PBOX-24, 7-Acetoxy-6p-tolylpyrrolo[2,1-d][1,5]benzoxazepine]
HL-60 cells
  cytotoxicity at 10 µM: 7 ± 1.2%

## CCNC(=O)OC1=C(c2ccccc2)Oc2ccccc2-n2cccc21 [PBOX-25, 7-[(Ethylcarbamoyl)oxy]-6-phenylpyrrolo[2,1-d][1,5]benzoxazepine]
HL-60 cells
  cytotoxicity at 10 µM: 19.2 ± 3%

## CCN(CC)C(=O)OC1=C(c2ccccc2)Oc2cccnc2-n2cccc21 [PBOX-26, 7-((Diethylcarbamoyl)oxy)-6-phenylpyrrolo[1,2-d]pyrido[3,2-b][1,4]oxazepine]
HL-60 cells
  cytotoxicity at 10 µM: 7.8 ± 2.3%

## COc1ccc(C2=C(OC(=O)c3ccncc3)c3cccn3-c3ccccc3S2)cc1 [PBOX-28, 7-Isonicotinoyloxy-6-p-methoxyphenylpyrrolo[2,1-d][1,5]-benothiazepine]
HL-60 cells
  cytotoxicity at 10 µM: 31.1 ± 1.7%

## CCCC(=O)OC1=C(c2ccc(OC)cc2)[S+]([O-])c2ccccc2-n2cccc21 (stereo not shown) [PBOX-30, 7-(Butyryloxy)-6-(p-methoxyphenyl)pyrrolo[2,1-d][1,5]-benzothiazepine 5-Oxide]
HL-60 cells
  cytotoxicity at 10 µM: 33.1 ± 1.6%

## CCC(C)N(C)C(=O)c1cc2ccccc2c(-c2ccccc2Cl)n1 (stereo not shown) [PK 11195, 1-(2-chlorophenyl)-N-methyl-N-(1-methylpropyl)-3-isoquinolinecarboxamide]
HL-60 cells; 10 μM
  induction of apoptosis at 10 μM: did not induce apoptosis
HL-60 cells
  induction of apoptosis at a higher concentration: induced apoptosis
[3]
  induction of apoptosis at 10 μM: failed to induce apoptosis
  induction of apoptosis at 100 μM: apoptosis was induced, although not to the same extent
[2]
  inhibition of proliferation, without being cytotoxic: inhibit at micromolar concentrations
Rat C6 glioma
  inhibition of proliferation, without being cytotoxic: inhibit at micromolar concentrations

## CN1C(=O)CN=C(c2ccc(Cl)cc2)c2cc(Cl)ccc21 [Ro5-4864, 7-chloro-5-(4-chlorophenyl)-1,3-dihydro-1-methyl-2-H-1,4-benzodiazepin-2-one]
HL-60 cells; 10 μM
  induction of apoptosis at 10 μM: did not induce apoptosis
HL-60 cells
  induction of apoptosis at a higher concentration: induced apoptosis
[3]
  induction of apoptosis at 10 μM: failed to induce apoptosis
  induction of apoptosis at 100 μM: apoptosis was induced, although not to the same extent
[2]
  inhibition of proliferation, without being cytotoxic: inhibit at micromolar concentrations
Rat C6 glioma
  inhibition of proliferation, without being cytotoxic: inhibit at micromolar concentrations

## CC1(C)CCCC(C)(C)N1[O] [TEMPO, reference compound]
HL-60 cells
  protection against PBOX-6 induced apoptosis: Neither of these compounds were found to protect

## CCC(C)N(C)C(=O)c1cc2ccccc2c(-c2ccccc2Cl)n1 (stereo not shown) [[^3H] PK 11195, reference compound]
[1]; HL-60 cell homogenates
  Bmax of [^3H] PK 11195 binding: 9.5±1.5 pmol/mg of protein

## COc1cc([C@@H]2c3cc4c(cc3[C@@H](O[C@@H]3O[C@@H]5CO[C@@H](C)O[C@H]5[C@H](O)[C@H]3O)[C@H]3COC(=O)[C@H]23)OCO4)cc(OC)c1O [etoposide]
JNK1 and JNK2
  effect of Topo II inhibitor pretreatment on PBOX-6 induced JNK activation: failed to prevent against PBOX-6 induced activation of JNK
K562 cells
  effect of pretreatment on PBOX-6 induced apoptosis: protects against apoptosis
  induction of apoptosis: does not induce apoptosis
K562 cells; K562, up to 24 hours
  apoptosis: failed to undergo apoptosis

## O=c1c(-c2ccc(O)cc2)coc2cc(O)cc(O)c12 [genistein, reference compound]
[4]
  effect of pretreatment on PBOX-6 induced protein phosphorylation: prevented the phosphorylation of these two proteins
K562 cells
  effect of tyrosine kinase inhibitor pretreatment on PBOX-6 induced apoptosis: completely inhibited the induction of apoptosis

## CO[C@H]1[C@@H](OC)C[C@H](C)[C@@H](OC)C2=CC(=O)C=C(NC(=O)/C(C)=C/C=C\[C@H](OC)[C@@H](OC(N)=O)/C(C)=C/[C@@H]1C)C2=O [herbimycin A]
K562 cells
  effect of tyrosine kinase inhibitor pretreatment on PBOX-6 induced apoptosis: reduced levels of apoptosis

## O=C1c2c(O)ccc(O)c2C(=O)c2c(NCCNCCO)ccc(NCCNCCO)c21 [mitoxanthrone]
K562 cells
  effect of pretreatment on PBOX-6 induced apoptosis: protects against apoptosis
  induction of apoptosis: does not induce apoptosis

## Vitamin E
K562 cells
  protection against PBOX-6 induced apoptosis: failed to protect

## z-DEVD-fmk [reference compound]
HL-60 cells
  effect of pre-treatment on morphological signs of apoptosis induced by PBOX-6: inhibited
[3]
  effect of pretreatment on PBOX-6 induced apoptosis: failed to prevent the induction of apoptosis
